From ChEMBL document CHEMBL3044748, “Phyllostictines AD, oxazatricycloalkenones produced by Phyllosticta cirsii, a potential mycoherbicide for Cirsium arvense biocontrol” (Tetrahedron, 2008)
The source made the active and inactive calls. No cut-off for these calls is given here.

Legend:
Cirsium arvense = assay: Phytotoxic activity against Cirsium arvense (Canada thistle) assessed as necrosis spot at 6 x 10^-3 M after 3 days by leaf puncture assay; type: functional, organism-based
Lactobacillus sp. = assay: Antibacterial activity against Lactobacillus sp. at 5 ug/disk; type: functional, organism-based
Escherichia coli = assay: Antibacterial activity against Escherichia coli up to 100 ug/disk; type: functional, organism-based
[1] = Zootoxic activity against larvae of Artemia salina (brine shrimp) assessed as mortality at 10^-4 M; type: ADME, organism-based; settings: in vivo
Geotrichum candidum = assay: Antifungal activity against Galactomyces geotrichum up to 100 ug/disk; type: functional, organism-based
Artemia salina = assay: Zootoxic activity against larvae of Artemia salina (brine shrimp) assessed as mortality; type: ADME, organism-based; settings: in vivo

Structure (SMILES) | Activity (Cirsium arvense) | Activity (Lactobacillus sp.) | Activity (Escherichia coli) | mortality at 100 µM [1] [%] | Activity (Geotrichum candidum) | Activity (Artemia salina)
CO[C@]12OC/C(=C3\C(=O)N(C)CC[C@]3(C)C(=O)CCCC[C@@H]1O)[C@@H]2O | Active |  |  |  |  | 
CCN1C(=O)/C2=C3\CO[C@@](OC)([C@@H](O)CCCCC[C@]21C)[C@H]3O [PHYLLOSTICTINE A] | Active | Active | inactive | 24 | inactive | 
CCN1C(=O)/C2=C3\CO[C@@](OC)([C@@H](O)CCC[C@]21C)[C@H]3O [PHYLLOSTICTINE B] | Active | Active | inactive |  | inactive | Non-toxic
CCN1C(=O)/C2=C3\CO[C@@](OC)([C@@H](O)CCCCC[C@]21C(C)O)[C@H]3O (some centres not stated) | inactive |  |  |  |  | 
